Measured values as given in patent EP0381533A2, “Cyclic monophosphates of purine and pyrimidine acyclonucleosides” (Merck & Co., Inc., priority 1989, dated 1990).

Tested on: Eisenhart Human Cytomegalovirus
Assay: Human Cytomegalovirus (HCMV) Plaque Reduction Assay
Format: cell-based
Conditions: MRC-5 cells (human fetal lung); ~60 PFUs; plaques counted on day 6 post inoculation
Protocol: Activity against Human Cytomegalovirus is determined by employing the Human Cytomegalovirus (HCMV) Assay. Two tissue culture assays are available; Cell Protection and Plaque Reduction. Both assays utilize MRC-5 cells (human fetal lung) and Eisenhart Human Cytomegalovirus. The following is a description of the Cell Protection and Plaque Reduction Assays.
Eight-two fold dilutions are made of the compound to be tested. After the dilutions are made, 0.5 ml of each dilution is added to each of three decanted wells of MRC-5. Two wells are used to determine the antiviral activity of the compound to be tested and one well is used to determine toxicity. The MRC-5 plates are then decanted, and the wells are infected with 0.1 ml of Human Cytomegalovirus inoculum containing ∼60 PFUs. The plates are then adsorbed for 1 hour at 37°C/5% CO₂. After one hour the virus is removed from the wells and duplicate wells are refed with dilutions of the compound to be tested. The plates are then incubated at 37°C/5% CO₂. Plaques are counted microscopically on day 6 post inoculation.

Nc1nc2c(ncn2COC(CO)CO)c(=O)[nH]1 [2-amino-1,9-dihydro-9-((2-hydroxy-1-(hydroxymethyl)-ethoxy)methyl)-6H-Purin-6-one]
Plag Red: 0.78 µg/mL

Nc1ccn(COC2COP(=O)(O)OC2)c(=O)n1 (stereo not drawn) [Sodium 1-[(2-hydroxy-1,3,2-dioxophosphorinan-5-yl)-oxymethyl]cytosine P-oxide]
Plag Red: 25.00 µg/mL

Nc1nc2c(ncn2COC2COP(=O)(O)OC2)c(=O)[nH]1 (stereo not drawn) [Sodium 9-[(2-hydroxy-1,3,2-dioxophosphorinan-5-yl)-oxymethyl]guanine P-oxide]
Plag Red: 0.19 µg/mL
